From patent US20050288238A1, “Benzocyclodecane derivatives with antitumor activity” (Pfizer Inc, priority 2004, published 2005)

Target: T1, Pig brain tubulin (Sus scrofa, UniProt P02550+P02554)
T1 construct: Pig brain tubulin was prepared by two cycles of assembly and disassembly; from tissue; host or cells: pig brain
Assay: Microtubule assembly and disassembly assay
Assay type: biochemical
Details: 0.5 mg/ml tubulin, 1 mM GTP, turbidity at 340 nm, reassembly after CaCl2 (5 mM)
Description: Microtubule assembly and disassembly assay.
Pig brain tubulin was prepared by two cycles of assembly and disassembly and it was stored in liquid nitrogen in Microtubule Assembly Buffer (MAB: 0.1 M MES, 2.5 mM EGTA, 0.5 mM MgSO4, 0.1 mM EDTA, 0.1 mM DTT pH 6.4). Assembly was monitored by the method of Gaskin et al. (Gaskin F, Cantor C R, Shelanski M L, 1974,: Turbidimetric studies of the in vitro assembly and disassembly of porcine neurotubules. J. Mol. Biol. 89: 737-758). The cuvette (1 cm path) containing 0.5 mg/ml tubulin and 1 mM GTP was shifted to 37° C. and continuous turbidity measurements were made at 340 nm on a spectrophotometer equipped with an automatic recorder and a thermostatically regulated sample chamber. After 30 min CaCl2 (5 mM) was added and disassembly was monitored for 10 min as decreased turbidity. Scalar doses of test compounds were monitored at regular intervals of 15 min.
(ED90) was calculated on this curve.

T1 sequence (P02550 whole entry): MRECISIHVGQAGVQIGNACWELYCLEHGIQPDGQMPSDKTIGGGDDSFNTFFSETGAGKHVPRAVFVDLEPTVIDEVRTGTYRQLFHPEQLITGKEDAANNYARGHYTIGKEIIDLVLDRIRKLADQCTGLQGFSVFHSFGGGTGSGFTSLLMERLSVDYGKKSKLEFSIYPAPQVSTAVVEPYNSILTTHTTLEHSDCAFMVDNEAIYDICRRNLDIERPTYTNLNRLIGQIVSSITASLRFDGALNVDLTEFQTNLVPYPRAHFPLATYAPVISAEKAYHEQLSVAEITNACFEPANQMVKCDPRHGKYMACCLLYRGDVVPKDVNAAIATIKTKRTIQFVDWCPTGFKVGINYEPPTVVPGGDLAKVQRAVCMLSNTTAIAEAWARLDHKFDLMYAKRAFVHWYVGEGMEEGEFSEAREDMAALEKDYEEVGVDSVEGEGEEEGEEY
T1 sequence (P02554 whole entry): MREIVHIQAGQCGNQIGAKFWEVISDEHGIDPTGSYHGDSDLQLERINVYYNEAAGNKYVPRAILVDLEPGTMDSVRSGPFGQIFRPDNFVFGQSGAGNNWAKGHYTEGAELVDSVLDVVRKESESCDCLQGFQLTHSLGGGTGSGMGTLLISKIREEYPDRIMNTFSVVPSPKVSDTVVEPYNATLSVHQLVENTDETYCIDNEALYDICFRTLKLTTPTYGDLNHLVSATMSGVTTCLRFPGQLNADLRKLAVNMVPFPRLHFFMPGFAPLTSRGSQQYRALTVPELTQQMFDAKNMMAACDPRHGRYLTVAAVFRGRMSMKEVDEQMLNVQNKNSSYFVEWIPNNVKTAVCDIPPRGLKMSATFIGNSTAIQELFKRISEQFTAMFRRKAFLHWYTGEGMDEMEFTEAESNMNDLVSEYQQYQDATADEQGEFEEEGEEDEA

ED90 (dose effecting tubulin assembly by 90% at 37° C.): 10 µM
SMILES: CC(=O)OC1C/C=C\CC(OC(=O)/C=C/c2cn(C)cn2)Cc2ccccc2C1 (stereo not shown) [I^v a, 11-(Acetyloxy)-5,6,7,10,11,12-hexahydrobenzo[a][10]annulen-6-yl (2E)-3-(1-methyl-1H-imidazol-4-yl)prop-2-enoate]
